According to patent US5981517A, “Androstene derivatives” (priority 1997, dated 1999):

Experiments:
[1] = system: forearm of a human volunteer; assay: Human vasoconstriction test; type: in vivo; set-up: key: 0 = normal skin, 4 = very intense pallor; settings: 10 mM
[2] = Stability in liver homogenate; type: in vitro ADME, rat; settings: 20% rat liver homogenate, 0.1 mM, 37° C.; read-out: Half-life (t1/2), Liver
Procedure: (§1) A Whatman C-18 column (4.6 mm×108 mm) was connected to a Spectra-Physics component system consisting of a SP 8810 precision isocratic pump, Rheodyne 7125 injector (20 μL injection volume), SP 8450 UV/VIS variable wavelength detector (230 nm), and SP 4290 integrator. The system was operated at ambient temperature. The mobile phase consisted of acetonitrile, acetic acid and water (60:0.1:40). At a flow rate of 1.0 mL/minute, the retention times for the test compounds were 4.74 minutes for Compound A, 5.84 minutes for Compound B, 6.93 minutes for Compound C, and 5.72 minutes for Compound D.
(§2) HPLC peak area and peak height were used as a measure of the concentration of the test compounds and plotted against time to evaluate the disappearance rates of the compounds. The stability was determined by measuring the pseudo-first order rate constant (kobs in min^-1) or half-life (t1/2 in min) of disappearance of the test compound in buffer. […].
(§3) A 0.2 mL aliquot of stock solution (1 mM) of each of the test compounds A, B, C, and D, was added to 2 mL of each biological media (whole heparinized rat blood, 20% rat liver homogenate, and 6-volume diluted lung homogenate in isotonic buffer of pH 7.40 made by combining 0.05 M of Na2 HPO4 and 0.05 M of NaH2 PO4 with 0.05 M of NaCl), which was kept in a 37° C. water bath, to obtain a final concentration of 0.1 mM in each biological medium. Samples of 0.1 mL were taken at appropriate time intervals for 2 hours (at 0, 3, 5, 10, 20, 40, 60, 90 and 120 minutes) and mixed with 0.2 mL of acetonitrile containing 5% DMSO. Each mixture was centrifuged and the supernatant was injected in the HPLC.

[3] = physchem; type: physicochemical
Procedure: as §1, §2
The stabilities of test compounds A, B, C, and D, were tested in buffer solutions in the pH range of 4.0 to 9.0. A 0.1 mL portion of each compound at a concentration of 1 mM was mixed with 10 mL phosphate buffer (made by combining 0.05 M of NaH2 PO4 and 0.05 M of Na2 HPO4 with 0.05 M of NaCl) to give a final concentration of 0.01 mM. The mixtures were incubated at 37° C., and samples were taken and injected in the HPLC system at appropriate time intervals. pH profiles of each test compound are shown in TABLE III below. […]

[4] = Stability in human plasma; type: in vitro ADME; settings: human plasma, 100 μM, 37° C.
Procedure: (§4) A Waters NOVA-PAK phenyl column was connected to a Spectra-Physics component system consisting of a SP 8810 precision isocratic pump, a Rheodyne 7125 injector (injection volume 20 μL), an SP 8450 UV/VIS variable wavelength detector (operated at 254 nm) and a SP 4270 integrator. […]. The retention times of compound of the invention J and its metabolities L and M were 8.64, 2.70 and 2.45 minutes, respectively. The retention times of compound of the invention I and its metabolites N and 0 were 5.84, 2.70 and 1.81 minutes, respectively. The retention time of cortienic acid was 1.00 minute.
(§5) Freshly collected human or rat plasma was used. An aliquot of 10 mM test compound in ethanol solution was added to prewarmed (37° C.) plasma to yield a final concentration of 100 μM. At appropriate time intervals, samples (0.1 mL) were removed and mixed with 0.2 mL of 5% dimethylsulfoxide/acetonitrile solution. Mixtures were centrifuged and supernatants were analyzed by HPLC. The pseudo-first order rate constant of the disappearance of compound in the biological media was determined by linear regression analysis from the plot of log peak area and peak height versus time.
(§6) Stability was evaluated by the pseudo first-order rate constant (k, hr^-1) and half-life (t1/2, hr) of the disappearance of the test compound in the media.

[5] = Stability in rat plasma; type: in vitro ADME; settings: rat plasma, 100 μM, 37° C.
Procedure: as §4, §5, §6

[6] = Stability in rat blood; type: in vitro ADME; settings: rat blood, 0.1 mM, 37° C.; read-out: Half-life (t1/2), Blood
Procedure: as §1, §2, §3

[7] = Stability in lung homogenate; type: in vitro ADME; settings: rat; 6-volume diluted lung homogenate, 0.1 mM, 37° C.; read-out: Half-life (t1/2), Lung
Procedure: as §1, §2, §3

CCOC(=O)[C@@]1(OC(=O)C(Cl)Cl)CC[C@H]2[C@@H]3CCC4=CC(=O)C=C[C@]4(C)[C@H]3[C@@H](O)C[C@@]21C [Compound B, Ethyl 17α-dichloroacetoxy-11β-hydroxyandrosta-1,4-dien-3-one-17β-carboxylate]
Vasoconstriction activity ([1]; 1 hour after patch removal): 3 | Vasoconstriction activity ([1]; 8 hours after patch removal): 4 | Vasoconstriction activity ([1]; 17 hours after patch removal): 4 | Vasoconstriction activity ([1]; 24 hours after patch removal): 4 | half-life at 100 µM [2]: 0.313 h | half-life ([3]; aqueous phosphate buffer, pH 4.5): > 48 h | half-life ([3]; aqueous phosphate buffer, pH 6.56): 16.7 h | half-life ([3]; aqueous phosphate buffer, pH 7.4): 5.08 h | half-life ([3]; aqueous phosphate buffer, pH 8.08): 0.867 h | half-life ([3]; aqueous phosphate buffer, pH 9): 0.144 h | half-life ([3]; buffer, pH 7.4): 5.08 h | k (pseudo first-order rate constant) [4]: 0.138 h⁻¹ | half-life at 100 µM ([4]; read-out: t1/2 (converted)): 5.03 h | k (pseudo first-order rate constant) [5]: 0.136 h⁻¹ | half-life at 100 µM ([5]; read-out: t1/2 (converted)): 5.08 h | half-life at 100 µM [6]: 1.29 h | half-life at 100 µM [7]: 2.29 h
